The values that follow are results of earlier work, collected in patent US11503825B2, “Pyrethroid formulations” (Vive Crop Protection Inc., priority 2011, dated 2022).

≈ marks a conversion by molar mass, not a printed value. Entries after “also recorded” stand apart in the source; their conditions may differ. Like-named read-outs stand apart in the source and are kept apart here.

The conditions of data set [1]: cited from earlier work; for Stability data: in words.
For data set [2] the following is noted: cited from earlier work; for Photolytic stability: in words; for Photolysis DT50: aqueous solution.
For data set [3] the following is noted: cited from earlier work.
The conditions of data set [4]: hydrolysis prevents measurement; cited from earlier work.
The conditions of data set [5]: cited from earlier work. The source holds these as a separate data set.

For `CC1(C)C(C=C(Cl)Cl)C1C(=O)OC(C#N)c1cccc(Oc2ccccc2)c1` (racemic) [Alpha-cypermethrin, A racemate comprising (S)-α-cyano-3-phenoxybenzyl (1R,3R)-3-(2,2-dichlorovinyl)-2,2-dimethylcyclopropanecarboxylate and (R)-α-cyano-3-phenoxybenzyl (1S,3S)-3-(2,2-dichlorovinyl)-2,2-dimethylcyclopropanecarboxylate], the “DT50 (hydrolysis)” value in data set [1] (pH 4, 50° C.) is “stable over 10 d”; in data set [1] (pH 7, 20° C.) it was 101 days; in data set [1] (pH 9, 20° C.), 7.3 days.

With `Cc1c(COC(=O)[C@@H]2[C@H](/C=C(\Cl)C(F)(F)F)C2(C)C)cccc1-c1ccccc1` (racemic) [Bifenthrin, 2-methylbiphenyl-3-ylmethyl (Z)-(1RS,3RS)-3-(2-chloro-3,3,3-trifluoroprop-1-enyl)-2,2-dimethylcyclopropanecarboxylate], the “Soil DT50 (lab.)” value in data set [1] (range) is 53 to 192 days. Besides, in data set [2] (in natural daylight), the “Photolytic stability DT50” value is “DT50 255 days in natural daylight^+”.

For the molecule `CC1(C)[C@H](C(=O)O[C@@H](C#N)c2cccc(Oc3ccccc3)c2)[C@@H]1/C=C(\Cl)C(F)(F)F` (racemic) [Cyhalothrin, (RS)-α-cyano-3-phenoxybenzyl (Z)-(1RS,3RS)-3-(2-chloro-3,3,3-trifluoroprop-1-enyl)-2,2-dimethylcyclopropanecarboxylate], the “KOW logP” value in data set [3] (20° C.) is on record as “logP = 6.9”. In addition, in data set [1], the Stability data entry is “Slowly hydrolyzed by water in sunlight at pH 7-9,; also recorded: more rapidly at pH >9”. In addition, in data set [4], the pKa is recorded as over 9. For the same molecule, the “Solubility in acetone, dichloromethane, methanol, diethyl ether, ethyl acetate, hexane, toluene” value in data set [5] is reported as “acetate, hexane, toluene: >500 g/L”. Further, the Solubility in water entry in data set [5] (pH 5, 20° C.) is “water: 4.2 ug/L (pH 5, 20° C.)”. The Photolytic stability entry in data set [2] was “Stable to light; slow hydrolysis by water in”.

`CC1(C)C(C=C(Cl)Cl)C1C(=O)OC(C#N)c1cccc(Oc2ccccc2)c1` (racemic) [Cypermethrin, (RS)-α-cyano-3-phenoxybenzyl (1RS,3RS;1RS,3SR)-3-(2,2-dichlorovinyl)-2,2-dimethylcyclopropanecarboxylate]: the “DT50 (hydrolysis)” value in data set [1] (pH 9, 25° C.) was 1.8 days.

For the molecule `CC(C)[C@@H](C(=O)O[C@@H](C#N)c1cccc(Oc2ccccc2)c1)c1ccc(Cl)cc1` (racemic) [Fenvalerate, (RS)-α-cyano-3-phenoxybenzyl (RS)-2-(4-chlorophenyl)-3-methylbutyrate], the “KOW logP” value in data set [3] (23° C.) is given as “logP = 5.01”. In data set [1], the Stability data entry was “rapidly hydrolyzed in alkaline media”. Also, in data set [5] (20° C.), the Solubility in methanol result is listed as “methanol 84 (all in g/l, 20° C.)”; the Solubility in n-hexane was 53 g/L (≈ 126 mM); the Solubility in xylene was over 200 g/L. Besides, in data set [5] (25° C.), the Solubility in water result is “water <10 μg/l (25° C.)”. In addition, in data set [2], the Photolytic stability entry was “Decarboxylation occurs in light^+”.

For `CC1(C)C(C=C(Cl)Cl)C1C(=O)OC(C#N)c1cccc(Oc2ccccc2)c1` (racemic) [Zeta-cypermethrin, A mixture of the stereoisomers (S)-α-cyano-3-phenoxybenzyl (1RS,3RS;1RS,3SR)-3-(2,2-dichlorovinyl)-2,2-dimethylcyclopropanecarboxylate where the ratio of the (S);(1RS,3RS) isomeric pair to the (S);(1RS,3SR) isomeric pair lies in the ratio range 45-55 to 55-45], the “Hydrolysis DT50” value in data set [1] (pH 7, 25° C.) was 25 days; in data set [1] (pH 9, 50° C.) it was 1.5 h (pH 9, 50° C.). In addition, the “Photolysis DT50” value in data set [2] is reported as “Photolysis DT50 (aqueous solution) 20-26 days^+”.

`CC1(C)[C@H](C(=O)O[C@H](C#N)c2cccc(Oc3ccccc3)c2)[C@@H]1C=C(Br)Br` [Deltamethrin, (S)-α-cyano-3-phenoxybenzyl (1R,3R)-3-(2,2-dibromovinyl)-2,2-dimethylcyclopropanecarboxylate]: in data set [3] (25° C.), the “KOW logP” value is reported as “logP = 4.6”. Moreover, the Stability data entry in data set [1] was “stable at pH 5 and 7”. The DT50 in data set [1] (pH 8) was 31 days; in data set [1] (pH 9), 2.5 days. Besides, the Photolytic stability entry in data set [2] was “Ester bond splitting and bromine loss under”.

For the molecule `CC(C)[C@H](C(=O)O[C@H](C#N)c1cccc(Oc2ccccc2)c1)c1ccc(Cl)cc1` [Esfenvalerate, (S)-α-cyano-3-phenoxybenzyl (S)-2-(4-chlorophenyl)-3-methylbutyrate], the “KOW logP” value in data set [3] (pH 7, 25° C.) was “logP = 6.5”. In data set [1], the Stability data result is “Stable to hydrolysis at pH 5, 7 and 9 (25° C.)”. In data set [5] (20° C.), the Solubility in hexane is 77 mg/mL (≈ 183 mM); the Solubility in water entry is recorded as “water 0.002 mg/l (20° C.)”; the “Solubility in xylene, acetone, chloroform, ethanol, methanol, DMF, hexylene glycol” value was over 450 mg/mL. For the same molecule, in data set [2], the Photolytic stability result is “Stable^+”.

For `CC1(C)[C@H](C(=O)O[C@H](C#N)c2cccc(Oc3ccccc3)c2)[C@@H]1/C=C(\Cl)C(F)(F)F` [Gamma-cyhalothrin, (S)-α-cyano-3-phenoxybenzyl (Z)-(1R,3R)-3-(2-chloro-3,3,3-trifluoroprop-1-enyl)-2,2-dimethylcyclopropanecarboxylate], the “KOW logP” value in data set [3] (19° C.) is on record as “logP = 4.96”. Also, the Solubility in water result in data set [5] (20° C.) is listed as “water 2.1 × 10^−3 mg/l (20° C.)”. The “Photolysis DT50” value in data set [2] was “Photolysis DT50 (aqueous solution) 10.6 days^+”.

Regarding `CC1(C)C(C=C(Cl)Cl)C1C(=O)OCc1cccc(Oc2ccccc2)c1` (stereo not drawn) [Permethrin, 3-phenoxybenzyl (1RS,3RS;1RS,3SR)-3-(2,2-dichlorovinyl)-2,2-dimethylcyclopropanecarboxylate], in data set [1] (pH 5, 7, 25° C.), the DT50 result is “stable”. Also, the “DT50 (hydrolysis)” value in data set [1] (pH 9, 25° C.) is 50 days. In addition, in data set [5] (25° C.), the Solubility in methanol is given as 258 (all in g/kg, 25° C.) and the “Solubility in xylene, hexane” value is on record as “xylene, hexane >1000, methanol g/kg”. Further, the Solubility in water entry in data set [5] (pH 7, 20° C.) was “water 6 × 10^−3mg/l (pH 7, 20° C.);”. Further, the Solubility in water entry in data set [5] (trans- isomers, pH not stated, 25° C.) is reported as “stated, 25° C.); trans- isomers 0.13 mg/l”. Also, the Photolytic stability entry in data set [2] is on record as “Photolysis in water^++”.

As to `CC(C)=CC1C(C(=O)OCc2coc(Cc3ccccc3)c2)C1(C)C` (stereo not drawn) [Resmethrin, 5-benzyl-3-furylmethyl (1RS,3RS;1RS,3SR)-2,2-dimethyl-3-(2-methylprop-1-enyl)cyclopropane carboxylate], in data set [3] (25° C.), the “KOW logP” value is given as “logP = 5.43”. The Stability data entry in data set [1] is listed as “Unstable in alkaline media”. In addition, the Solubility in water entry in data set [5] (25° C.) is recorded as “water 37.9 μg/l (25° C.)”. In data set [5] (m/v, 20° C.), the Solubility in acetone entry is listed as “acetone c. 30%, chloroform,”; the “Solubility in chloroform, dichloromethane, ethyl acetate, toluene” value is over 50%; the “Solubility in ethanol, n-octanol” value is “ethanol, n-octanol c. 6%, n-hexane”; the “Solubility in isopropyl ether” value is about 25%. Besides, in data set [5] (m/v, 20° C.), the Solubility in methanol entry is listed as “methanol c. 3% (all m/v, 20° C.)”; the Solubility in n-hexane is listed as about 10%; the Solubility in xylene was over 40%. Moreover, the Photolytic stability result in data set [2] is “Decomposes rapidly on exposure to air and light^+”.

“A mixture of the enantiomers (R)-α-cyano-3-phenoxybenzyl (1S,3R)-3-(2,2-dichlorovinyl)-2,2-dimethylcyclopropanecarboxylate and (S)-α-cyano-3-phenoxybenzyl (1R,3S)-3-(2,2-dichlorovinyl)-2,2-dimethylcyclopropanecarboxylate in the ratio 1:1 [Theta-cypermethrin]”: the “DT50 (extrapolated)” value in data set [1] (pH 3, 5, 6, 25° C.) was 50 days; in data set [1] (pH 7, 25° C.) it was 20 days; in data set [1] (pH 8, 25° C.) it was 18 days; in data set [1] (pH 9, 25° C.), 10 days.

With Beta-cypermethrin, the “KOW logP” value in data set [3] is “logP = 4.7”. Further, the Stability data result in data set [1] was “Hydrolyzed in strongly alkaline media. DT50”. Further, the “DT50 (extrapolated)” value is 50 days in data set [1] (pH 3, 5, 6, 25° C.); 40 days in data set [1] (pH 7, 25° C.); 20 days in data set [1] (pH 8, 25° C.); “(pH 8), 15 d (pH 9) (all at 25° C.)” in data set [1] (pH 9, 25° C.).

As usually defined, the pKa is the negative logarithm of the acid dissociation constant.
